Measurements published in US11098055B2, “Ester ACC inhibitors and uses thereof” (Gilead Apollo, LLC, priority 2015, dated 2021).
≈ marks a conversion by molar mass, not a printed value. Where two headings read alike, the source gives them in different places.

Experiments:
[1] = tested on: Collectotrichum graminicola (Cg); test: Growth inhibition assay of fungal pathogens; format: cell-based; details: 48 h, read-out: Concentration at 90% Inhibition Cg
Outline: (§1)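 Read-out was OD600 with visual scoring at 48 h, expressed as percent inhibition relative to wells containing 2% DMSO alone. Test wells held spores in 17% V8 liquid medium, with compound at final levels of either 50, 10, 2 ppm or 2, 0.4, 0.08 ppm.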

[2] = tested on: Fusarium moniliforme (Fm); test: Growth inhibition assay of fungal pathogens; format: cell-based; details: Fusarium verticillioides, 48 h, read-out: Concentration at 90% Inhibition Fm
Outline: as §1

[3] = tested on: Fusarium virguliforme (Fv); test: Growth inhibition assay of fungal pathogens; format: cell-based; details: 48 h, read-out: Concentration at 90% Inhibition Fv
Outline: as §1

Septoria tritici (St) = test: Growth inhibition assay of fungal pathogens; format: cell-based; details: Zymoseptoria tritici, 48 h, read-out: Concentration at 90% Inhibition St
Outline: as §1

Rhizoctonia solani (Rs) = test: Growth inhibition assay of fungal pathogens; format: cell-based; details: 48 h, read-out: Concentration at 90% Inhibition Rs
Outline: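 Percent growth inhibition is scored at 48 h, by OD600 (blank-subtracted) and visual rating against the 2% DMSO control. Compounds were tested at final 50, 10, 2 ppm or 2, 0.4, 0.08 ppm on pathogen spores diluted in 17% V8 medium; mycelial plugs in ¼ PDB were used for Rhizoctonia.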

Diplodia maydis (Dm) = test: Growth inhibition assay of fungal pathogens; format: cell-based; details: Stenocarpella maydis, 48 h, read-out: Concentration at 90% Inhibition Dm
Outline: as §1

[4] = tested on: Phytophthora capsici (Pc); test: Growth inhibition assay of fungal pathogens; format: cell-based; details: 48 h, read-out: Concentration at 90% Inhibition Pc
Outline: as §1

hACC2 = hACC2 (Homo sapiens, UniProt O00763); test: In vitro ACC2 inhibition assay (ADP-Glo), human ACC2; format: biochemical
Chain of hACC2 (O00763 whole entry): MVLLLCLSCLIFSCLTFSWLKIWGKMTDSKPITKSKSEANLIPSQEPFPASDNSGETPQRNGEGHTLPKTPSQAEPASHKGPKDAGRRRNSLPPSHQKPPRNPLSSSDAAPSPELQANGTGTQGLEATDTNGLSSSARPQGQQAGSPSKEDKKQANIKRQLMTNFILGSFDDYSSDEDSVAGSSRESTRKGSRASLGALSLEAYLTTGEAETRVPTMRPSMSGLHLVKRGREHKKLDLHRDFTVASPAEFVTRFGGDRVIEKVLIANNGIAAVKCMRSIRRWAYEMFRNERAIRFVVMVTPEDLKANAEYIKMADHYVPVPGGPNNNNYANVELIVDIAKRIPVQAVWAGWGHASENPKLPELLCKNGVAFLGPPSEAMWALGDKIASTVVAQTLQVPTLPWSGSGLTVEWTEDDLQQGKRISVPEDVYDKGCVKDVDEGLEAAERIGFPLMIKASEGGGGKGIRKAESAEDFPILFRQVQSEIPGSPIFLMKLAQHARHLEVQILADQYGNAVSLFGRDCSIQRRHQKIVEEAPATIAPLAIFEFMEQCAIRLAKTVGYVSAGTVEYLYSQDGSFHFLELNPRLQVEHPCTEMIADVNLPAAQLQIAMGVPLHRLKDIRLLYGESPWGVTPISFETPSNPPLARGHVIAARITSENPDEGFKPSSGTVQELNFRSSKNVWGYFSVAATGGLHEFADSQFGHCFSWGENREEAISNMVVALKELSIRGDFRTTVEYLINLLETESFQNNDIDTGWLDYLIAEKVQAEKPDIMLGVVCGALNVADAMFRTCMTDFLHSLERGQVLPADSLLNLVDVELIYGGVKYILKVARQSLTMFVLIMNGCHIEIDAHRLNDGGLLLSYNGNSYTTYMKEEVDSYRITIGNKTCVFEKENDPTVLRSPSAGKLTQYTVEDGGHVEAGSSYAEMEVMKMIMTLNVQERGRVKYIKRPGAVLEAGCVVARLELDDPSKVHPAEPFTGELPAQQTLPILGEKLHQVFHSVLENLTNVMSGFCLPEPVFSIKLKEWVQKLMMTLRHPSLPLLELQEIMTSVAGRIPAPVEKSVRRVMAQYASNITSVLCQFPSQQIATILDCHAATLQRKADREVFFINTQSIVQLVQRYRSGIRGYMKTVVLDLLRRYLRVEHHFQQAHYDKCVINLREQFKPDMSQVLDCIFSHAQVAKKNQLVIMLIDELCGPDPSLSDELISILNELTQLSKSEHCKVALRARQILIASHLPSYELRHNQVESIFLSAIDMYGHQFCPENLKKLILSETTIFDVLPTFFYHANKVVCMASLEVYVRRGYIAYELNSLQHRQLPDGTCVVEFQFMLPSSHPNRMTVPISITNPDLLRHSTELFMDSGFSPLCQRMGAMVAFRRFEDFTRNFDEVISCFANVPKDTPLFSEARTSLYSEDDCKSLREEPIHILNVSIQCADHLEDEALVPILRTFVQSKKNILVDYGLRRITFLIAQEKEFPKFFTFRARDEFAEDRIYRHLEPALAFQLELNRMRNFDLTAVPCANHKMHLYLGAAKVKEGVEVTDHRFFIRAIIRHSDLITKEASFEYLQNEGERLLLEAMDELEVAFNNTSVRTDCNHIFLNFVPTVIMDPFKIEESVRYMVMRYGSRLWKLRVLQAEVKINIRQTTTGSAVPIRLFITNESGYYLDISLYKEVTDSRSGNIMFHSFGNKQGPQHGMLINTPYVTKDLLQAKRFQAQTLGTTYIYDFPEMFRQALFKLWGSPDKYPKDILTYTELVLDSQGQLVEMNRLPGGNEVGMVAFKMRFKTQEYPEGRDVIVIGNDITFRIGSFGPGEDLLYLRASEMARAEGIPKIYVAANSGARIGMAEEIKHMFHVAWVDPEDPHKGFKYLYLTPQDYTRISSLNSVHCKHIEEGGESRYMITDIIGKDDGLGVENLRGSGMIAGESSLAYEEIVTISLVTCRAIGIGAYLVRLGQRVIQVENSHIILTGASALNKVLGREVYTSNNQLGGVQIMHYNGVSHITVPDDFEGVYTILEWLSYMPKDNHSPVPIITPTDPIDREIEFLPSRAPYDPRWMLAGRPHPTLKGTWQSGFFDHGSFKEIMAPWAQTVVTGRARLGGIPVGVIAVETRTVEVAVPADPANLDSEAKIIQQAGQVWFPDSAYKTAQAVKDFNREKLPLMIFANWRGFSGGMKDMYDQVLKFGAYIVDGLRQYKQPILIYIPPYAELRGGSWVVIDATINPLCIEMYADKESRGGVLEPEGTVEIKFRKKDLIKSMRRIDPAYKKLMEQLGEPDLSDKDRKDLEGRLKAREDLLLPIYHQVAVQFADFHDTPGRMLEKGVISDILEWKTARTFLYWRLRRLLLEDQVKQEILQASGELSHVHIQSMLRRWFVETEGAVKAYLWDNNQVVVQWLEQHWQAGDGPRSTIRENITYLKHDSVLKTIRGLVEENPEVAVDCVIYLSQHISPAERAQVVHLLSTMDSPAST
Outline: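 ADP-Glo luminescent ADP detection with 5 nM ACC2, 20 μM ATP, 20 μM acetyl-CoA, 12 mM NaHCO3, 2 mM DTT, 5% DMSO; compound (30 μM-0.00051 μM, 11 points) preincubated 15 min, reaction 60 min at room temperature. Percent inhibition against DMSO and positive controls; IC50 by four-parameter nonlinear fit.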

| Structure (SMILES) | IC90 ([1]; Table 4b) | IC90 ([2]; Table 4b) | IC90 ([3]; Table 4b) | IC90 (Septoria tritici (St); Table 4b) | IC90 (Rhizoctonia solani (Rs); Table 4b) | IC90 (Diplodia maydis (Dm); Table 4b) | IC90 ([4]; Table 4b) | IC50 (hACC2; Table 2b (additional results)) | IC90 ([1]; Table 4a) | IC90 ([2]; Table 4a) | IC90 ([3]; Table 4a) | IC90 (Septoria tritici (St); Table 4a) | IC90 (Rhizoctonia solani (Rs); Table 4a) | IC90 (Diplodia maydis (Dm); Table 4a) | IC90 ([4]; Table 4a) | IC50 (hACC2; Table 2a) |
| --- | --- | --- | --- | --- | --- | --- | --- | --- | --- | --- | --- | --- | --- | --- | --- | --- |
| CCOC(=O)c1sc2c(c1C)c(=O)n(C(C)(C)C(=O)NC(C)C)c(=O)n2C[C@H](OCC(C)(C)C#N)c1cc(F)ccc1OC [Compound I-37, ethyl (R)-1-(2-(2-cyano-2-methylpropoxy)-2-(5-fluoro-2-methoxyphenyl)ethyl)-3-(1-(isopropylamino)-2-methyl-1-oxopropan-2-yl)-5-methyl-2,4-dioxo-1,2,3,4-tetrahydrothieno[2,3-d]pyrimidine-6-carboxylate] | 0.4 µg/mL (≈ 0.634 µM) | 0.08 µg/mL (≈ 0.127 µM) | 0.4 µg/mL (≈ 0.634 µM) | ≥ 50 µg/mL | 2 µg/mL (≈ 3.17 µM) | 0.4 µg/mL (≈ 0.634 µM) | ≥ 50 µg/mL | 10 to 40 nM | – | – | – | – | – | – | – | – |
| CCOC(=O)c1sc2c(c1C)c(=O)n(C(C)(C)C(=O)NC(C)C)c(=O)n2C[C@H](OC[C@@H](C)C#N)c1cc(F)ccc1OC [Compound I-35, ethyl 1-((R)-2-((S)-2-cyanopropoxy)-2-(5-fluoro-2-methoxyphenyl)ethyl)-3-(1-(isopropylamino)-2-methyl-1-oxopropan-2-yl)-5-methyl-2,4-dioxo-1,2,3,4-tetrahydrothieno[2,3-d]pyrimidine-6-carboxylate] | 0.08 µg/mL (≈ 0.13 µM) | 0.08 µg/mL (≈ 0.13 µM) | 0.4 µg/mL (≈ 0.649 µM) | 10 µg/mL (≈ 16.2 µM) | 0.08 µg/mL (≈ 0.13 µM) | 0.4 µg/mL (≈ 0.649 µM) | ≥ 50 µg/mL | 3 to 10 nM | – | – | – | – | – | – | – | – |
| CCOC(=O)c1sc2c(c1C)c(=O)n(C(C)(C)C(=O)NC(C)C)c(=O)n2C[C@H](OCCS(C)(=O)=O)c1cc(F)ccc1OC [Compound I-36, ethyl (R)-1-(2-(5-fluoro-2-methoxyphenyl)-2-(2-(methylsulfonyl)ethoxy)ethyl)-3-(1-(isopropylamino)-2-methyl-1-oxopropan-2-yl)-5-methyl-2,4-dioxo-1,2,3,4-tetrahydrothieno[2,3-d]pyrimidine-6-carboxylate] | 0.4 µg/mL (≈ 0.61 µM) | 0.4 µg/mL (≈ 0.61 µM) | 2 µg/mL (≈ 3.05 µM) | ≥ 50 µg/mL | 0.4 µg/mL (≈ 0.61 µM) | 2 µg/mL (≈ 3.05 µM) | ≥ 50 µg/mL | 10 to 40 nM | – | – | – | – | – | – | – | – |
| CCNC(=O)C(C)(C)n1c(=O)c2c(C)c(C(=O)OCC)sc2n(C[C@H](OCCC#N)c2cc(F)ccc2OC)c1=O [Compound I-29, (R)-ethyl 1-(2-(2-cyanoethoxy)-2-(5-fluoro-2-methoxy-phenyl)ethyl)-3-(1-(ethylamino)-2-methyl-1-oxopropan-2-yl)-5-methyl-2,4-dioxo-1,2,3,4-tetrahydrothieno[2,3-d]pyrimidine-6-carboxylate] | 0.4 µg/mL (≈ 0.68 µM) | 0.08 µg/mL (≈ 0.136 µM) | 2 µg/mL (≈ 3.4 µM) | 10 µg/mL (≈ 17 µM) | 0.08 µg/mL (≈ 0.136 µM) | 0.4 µg/mL (≈ 0.68 µM) | ≥ 50 µg/mL | 3 to 10 nM | – | – | – | – | – | – | – | – |
| CCOC(=O)c1sc2c(c1C)c(=O)n([C@H](C)C(=O)NC(C)C)c(=O)n2C[C@H](O)c1cc(F)ccc1OC [Compound I-43, ethyl 1-((R)-2-(5-fluoro-2-methoxyphenyl)-2-hydroxyethyl)-3-((R)-1-(isopropylamino)-1-oxopropan-2-yl)-5-methyl-2,4-dioxo-1,2,3,4-tetrahydrothieno[2,3-d]pyrimidine-6-carboxylate] | 10 µg/mL (≈ 18.7 µM) | 0.08 µg/mL (≈ 0.149 µM) | 0.4 µg/mL (≈ 0.747 µM) | ≥ 50 µg/mL | 2 µg/mL (≈ 3.73 µM) | 10 µg/mL (≈ 18.7 µM) | ≥ 50 µg/mL | ≥ 40 nM | – | – | – | – | – | – | – | – |
| CCOC(=O)c1sc2c(c1C)c(=O)n(C(C)(C)C(=O)N1CCCCC1)c(=O)n2C[C@H](OC(C)C)c1ccccc1OC [Compound I-6, (R)-ethyl 1-(2-isopropoxy-2-(2-methoxyphenyl)ethyl)-5-methyl-3-(2-methyl-1-oxo-1-(piperidin-1-yl)propan-2-yl)-2,4-dioxo-1,2,3,4-tetrahydrothieno[2,3-d]pyrimidine-6-carboxylate] | 0.4 µg/mL (≈ 0.667 µM) | 0.08 µg/mL (≈ 0.133 µM) | 0.4 µg/mL (≈ 0.667 µM) | 2 µg/mL (≈ 3.33 µM) | 0.4 µg/mL (≈ 0.667 µM) | 0.4 µg/mL (≈ 0.667 µM) | ≥ 50 µg/mL | 10 to 40 nM | 0.4 µg/mL (≈ 0.667 µM) | 0.08 µg/mL (≈ 0.133 µM) | 0.4 µg/mL (≈ 0.667 µM) | 10 µg/mL (≈ 16.7 µM) | 0.4 µg/mL (≈ 0.667 µM) | 0.4 µg/mL (≈ 0.667 µM) | ≥ 50 µg/mL | 10 to 40 nM |
| CCOC(=O)c1sc2c(c1C)c(=O)n(C(C)(C)C(=O)NC(C)C)c(=O)n2C[C@H](OCCO)c1cc(F)ccc1OC [Compound I-18, (R)-ethyl 1-(2-(5-fluoro-2-methoxyphenyl)-2-(2-hydroxy-ethoxy)ethyl)-3-(1-(isopropylamino)-2-methyl-1-oxopropan-2-yl)-5-methyl-2,4-dioxo-1,2,3,4-tetrahydrothieno[2,3-d]pyrimidine-6-carboxylate] | 0.4 µg/mL (≈ 0.674 µM) | 0.08 µg/mL (≈ 0.135 µM) | 2 µg/mL (≈ 3.37 µM) | ≥ 50 µg/mL | 0.08 µg/mL (≈ 0.135 µM) | 0.4 µg/mL (≈ 0.674 µM) | ≥ 50 µg/mL | – | 0.4 µg/mL (≈ 0.674 µM) | 0.08 µg/mL (≈ 0.135 µM) | 2 µg/mL (≈ 3.37 µM) | ≥ 50 µg/mL | 0.08 µg/mL (≈ 0.135 µM) | 0.4 µg/mL (≈ 0.674 µM) | ≥ 50 µg/mL | 10 to 40 nM |
| CCOC(=O)c1sc2c(c1C)c(=O)n(C(C)(C)C(=O)NC(C)C)c(=O)n2C[C@H](OCCOC)c1cc(F)ccc1OC [Compound I-11, (R)-ethyl 1-(2-(5-fluoro-2-methoxyphenyl)-2-(2-methoxy-ethoxy)ethyl)-3-(1-(isopropylamino)-2-methyl-1-oxopropan-2-yl)-5-methyl-2,4-dioxo-1,2,3,4-tetrahydrothieno[2,3-d]pyrimidine-6-carboxylate] | 2 µg/mL (≈ 3.29 µM) | 0.08 µg/mL (≈ 0.132 µM) | 0.4 µg/mL (≈ 0.658 µM) | ≥ 50 µg/mL | 10 µg/mL (≈ 16.5 µM) | 2 µg/mL (≈ 3.29 µM) | ≥ 50 µg/mL | 10 to 40 nM | 2 µg/mL (≈ 3.29 µM) | 0.08 µg/mL (≈ 0.132 µM) | 0.4 µg/mL (≈ 0.658 µM) | ≥ 50 µg/mL | ≥ 50 µg/mL | 2 µg/mL (≈ 3.29 µM) | ≥ 50 µg/mL | 10 to 40 nM |
| CCOC(=O)c1sc2c(c1C)c(=O)n([C@H](C)C(=O)N(C)C(C)C)c(=O)n2C[C@H](OCCC#N)c1cc(F)ccc1OC [Compound I-27, ethyl 1-((R)-2-(2-cyanoethoxy)-2-(5-fluoro-2-methoxy-phenyl)ethyl)-3-((R)-1-(isopropyl(methyl)amino)-1-oxopropan-2-yl)-5-methyl-2,4-dioxo-1,2,3,4-tetrahydrothieno[2,3-d]pyrimidine-6-carboxylate] | 2 µg/mL (≈ 3.32 µM) | 0.08 µg/mL (≈ 0.133 µM) | 0.4 µg/mL (≈ 0.664 µM) | ≥ 50 µg/mL | 2 µg/mL (≈ 3.32 µM) | 2 µg/mL (≈ 3.32 µM) | ≥ 50 µg/mL | 0.3 to 3 nM | – | – | – | – | – | – | – | – |
| CCOC(=O)c1sc2c(c1C)c(=O)n(C(C)(C)C(=O)N1CCCC1)c(=O)n2C[C@H](OC1CCOCC1)c1ccccc1OC [Compound I-3, ethyl (R)-1-(2-(2-methoxyphenyl)-2-((tetrahydro-2H-pyran-4-yl)oxy)ethyl)-5-methyl-3-(2-methyl-1-oxo-1-(pyrrolidin-1-yl)propan-2-yl)-2,4-dioxo-1,2,3,4-tetrahydrothieno[2,3-d]pyrimidine-6-carboxylate] | 0.4 µg/mL (≈ 0.637 µM) | 0.08 µg/mL (≈ 0.127 µM) | 0.4 µg/mL (≈ 0.637 µM) | ≥ 50 µg/mL | 0.4 µg/mL (≈ 0.637 µM) | 2 µg/mL (≈ 3.19 µM) | ≥ 50 µg/mL | 10 to 40 nM | 0.4 µg/mL (≈ 0.637 µM) | 0.08 µg/mL (≈ 0.127 µM) | 0.4 µg/mL (≈ 0.637 µM) | ≥ 50 µg/mL | 0.4 µg/mL (≈ 0.637 µM) | 2 µg/mL (≈ 3.19 µM) | ≥ 50 µg/mL | 10 to 40 nM |
